Source: US11000515B2, “Compounds that interact with the Ras superfamily for the treatment of cancers, inflammatory diseases, rasopathies, and fibrotic disease” (Shy Therapeutics LLC, priority 2017, dated 2021)
Where two headings read alike, the source gives them in different places.

Experiments:
KRas G12C mutant = KRas G12C mutant (Homo sapiens (Human), UniProt P01116, G12C); test: Ras GTP binding domain inhibition assay (labeled GTP); details: for inhibition at 20 µM: compound at 20 μM
Procedure: (§1) Buffer-I: • 50 mM Tris, pH 7.5 • 150 mM NaCl (optional) • 1 mM MgCl2 • 1 mM DTT. • KRas G12D mutant protein was expressed as a His-tagged protein. Purified His-KRas G12D protein was diluted in buffer-I to a final concentration of 3-10 μg/ml. • 200 μl of the diluted His-KRas G12D protein was added to a nickel coated 96 well plate and incubated overnight at 4° C. • The next day, wells were washed 3× in 200 μl of Buffer-I. • Then 200 μl of Buffer-I were added to each well in the presence of 1% DMSO. • Tested compounds were added to the protein-coated wells at a concentration of 20 μM, and incubated for 3 hours at room temperature. While performing IC50 measurements a serial dilution of all tested concentrations was prepared.
(§2) Then 22 μl of Cy3-GTP or Cy5-GTP was added to each well. The labeled GTP was incubated for 45 min. at room temperature. • Following GTP incubation, wells were washed 3× in Buffer-I, and 200 μl of Buffer-I were added to each well. • Following washes, the amount of bound labeled-GTP was measured with an Eppendorf AF2200 plate reader.
(§3) By substituting KRas G12D mutant protein with KRas G12C mutant, KRas wild type, KRas Q61H mutant, KRas G12D/Q61H double mutant or KRas G12C/Q61H double mutant under the assay conditions described above, KRas G12C mutant KRas wild type, KRas Q61H mutant, KRas G12D/Q61H double mutant and KRas G12C/Q61H double mutant inhibition, respectively, were each determined.

[1] = system: TNFα production in RAW 264.7 macrophage cell line; test: Mouse TNF alpha quantification assay (LPS-stimulated RAW 264.7, ELISA); format: cell-based; details: RAW264.7, LPS-stimulated RAW 264.7 macrophage cell line, read-out: TNF-α % Inhibition at 30 μM
[2] = system: IL6 production in RAW 264.7 macrophage cell line; test: Mouse IL6 quantification assay (LPS-stimulated RAW 264.7, ELISA); format: cell-based; details: RAW264.7, LPS-stimulated RAW 264.7 macrophage cell line, read-out: IL-6 % Inhibition at 30 μM
[3] = target: KRas G12D/Q61H double mutant (Homo sapiens (Human), UniProt P01116, G12D/Q61H); test: Ras GTP binding domain inhibition assay (labeled GTP)
Procedure: as §1, §2, §3

KRas Q61H mutant = KRas Q61H mutant (Homo sapiens (Human), UniProt P01116, Q61H); test: as above; details: 20 μM compound
Procedure: as §1, §2, §3

KRas G12D mutant protein = KRas G12D mutant protein (Homo sapiens (Human), UniProt P01116, G12D); test: as above
Procedure: The following method was developed as specific assay for KRas G12D mutant protein.
as §1, §2

[4] = target: KRas G12C/Q61H double mutant (Homo sapiens (Human), UniProt P01116, G12C/Q61H); test: as above
Procedure: as §1, §2, §3

KRas wild type = KRas wild type (Homo sapiens (Human), UniProt P01116); test: as above; details: compound at 20 μM
Procedure: as §1, §2, §3

[5] = compound at 20 μM, read-out: % Inhibition at 20 μM, KRas G12D Q61H
[6] = 20 μM compound, read-out: % Inhibition at 20 μM, KRas G12D Q61H
[7] = 20 μM, read-out: KRas G12D Q61H % Inh.

Sequence of KRas G12D/Q61H double mutant (P01116-2 other isoform, or with tags, fused parts or gaps G12D/Q61H): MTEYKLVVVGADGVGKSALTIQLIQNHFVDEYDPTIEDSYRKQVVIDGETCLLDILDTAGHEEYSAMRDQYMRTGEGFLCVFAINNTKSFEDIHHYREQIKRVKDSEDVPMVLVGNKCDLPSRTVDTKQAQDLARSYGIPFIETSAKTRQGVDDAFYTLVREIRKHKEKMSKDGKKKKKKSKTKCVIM
Sequence of KRas G12C mutant (P01116-2 other isoform, or with tags, fused parts or gaps G12C): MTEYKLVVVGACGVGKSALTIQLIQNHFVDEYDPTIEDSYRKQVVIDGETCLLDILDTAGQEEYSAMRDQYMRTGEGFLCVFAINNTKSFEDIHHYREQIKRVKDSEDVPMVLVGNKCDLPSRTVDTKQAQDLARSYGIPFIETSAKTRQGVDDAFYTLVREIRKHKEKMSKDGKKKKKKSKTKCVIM
Sequence of KRas G12C/Q61H double mutant (P01116-2 other isoform, or with tags, fused parts or gaps G12C/Q61H): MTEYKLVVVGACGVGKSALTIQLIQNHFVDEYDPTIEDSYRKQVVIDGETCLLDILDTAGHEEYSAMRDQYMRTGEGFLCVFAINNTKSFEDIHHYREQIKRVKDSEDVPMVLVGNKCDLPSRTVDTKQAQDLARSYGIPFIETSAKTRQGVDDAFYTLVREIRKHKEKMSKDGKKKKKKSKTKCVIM
Sequence of KRas G12D mutant protein (P01116-2 other isoform, or with tags, fused parts or gaps G12D): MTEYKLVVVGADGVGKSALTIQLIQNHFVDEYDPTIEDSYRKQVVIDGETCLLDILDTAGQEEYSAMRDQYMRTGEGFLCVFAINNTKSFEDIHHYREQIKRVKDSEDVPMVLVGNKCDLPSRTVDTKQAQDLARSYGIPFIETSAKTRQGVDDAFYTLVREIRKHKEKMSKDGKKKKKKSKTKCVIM
Sequence of KRas Q61H mutant (P01116-2 other isoform, or with tags, fused parts or gaps Q61H): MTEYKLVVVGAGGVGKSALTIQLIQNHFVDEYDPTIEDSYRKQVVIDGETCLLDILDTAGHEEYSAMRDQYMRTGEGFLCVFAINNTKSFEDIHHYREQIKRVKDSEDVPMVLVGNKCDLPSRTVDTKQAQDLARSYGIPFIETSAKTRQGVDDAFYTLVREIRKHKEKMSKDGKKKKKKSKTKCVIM
Sequence of KRas wild type (P01116-2 other isoform, or with tags, fused parts or gaps): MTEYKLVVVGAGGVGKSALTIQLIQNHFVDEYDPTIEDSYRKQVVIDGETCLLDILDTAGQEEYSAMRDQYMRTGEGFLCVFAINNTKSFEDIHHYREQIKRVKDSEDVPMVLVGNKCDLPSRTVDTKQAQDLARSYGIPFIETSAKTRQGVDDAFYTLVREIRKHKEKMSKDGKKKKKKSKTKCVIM

Row | SMILES | inhibition at 30 µM [1] | inhibition at 30 µM [2] | further results
1 | Oc1nc(-c2ccccn2)nc2c(-c3ccccc3)csc12 |  |  | inhibition at 20 µM (KRas G12C mutant): 1 to 25%
2 | O=C(NCCc1cnc(O)cn1)c1csc2nc(-c3ccccn3)nc(N3CCS(=O)(=O)CC3)c12 | 0% | 51 to 75% | 
3 | N#Cc1ccc(C2CCCN2c2ccco2)cc1C(F)(F)F (stereo not shown) |  |  | inhibition at 20 µM [3, 5]: 1 to 25%
4 | Oc1nc(-c2ccccn2)nc2c(C3CCCC3)csc12 |  |  | % Inhibition at 20 μM, KRas Q61H (KRas Q61H mutant): D (D = 76-100% inhibition)
5 | COc1ccc(CCNC(=O)c2cc(S(=O)(=O)N3CCCCCC3)ccc2OC)cc1OC |  |  | inhibition at 20 µM [3, 5]: 25 to 50%
6 | Cc1cc(OC(C)COc2ccc(Oc3ccccc3)cc2)ncc1C(F)(F)F (stereo not shown) |  |  | inhibition at 20 µM [3, 6]: 51 to 75%
7 | CN(C)Cc1cc(F)cc(-c2csc3c(O)nc(-c4ccccn4)nc23)c1 | 51 to 75% | 76 to 100% | 
8 | O=C(CCc1cnn(-c2ccccc2)c1)Nc1nnc(-c2ccccn2)[nH]1 | 1 to 25% | 26 to 50% | 
9 | CCN(CC)S(=O)(=O)c1cc(C)c(C)c(NC(=O)CCc2c(C)cc(-c3ccccn3)nc2O)c1 |  |  | inhibition at 20 µM [3, 7]: 51 to 75%
10 | COc1ccccc1OCC(=O)Nc1nnc(-c2ccccn2)[nH]1 [drawing 2004] | 0% | 26 to 50% | 
11 | CCOc1cc(CN(C(=O)CCc2nc(-c3ccsc3)no2)C2CC2)ccc1OC(F)F |  |  | inhibition at 20 µM [3, 6]: 25 to 50%
12 | COCCNc1nc(-c2nccn2C)nc2sc(-c3ccccc3)c(-c3ccccc3)c12 |  |  | inhibition at 20 µM (KRas G12D mutant protein; 20 μM compound): 0%
13 | O=C(Nc1nc(-c2ccccn2)cs1)c1cccc(F)c1 | 0% | 1 to 25% | 
14 | O=C(NCCc1cncs1)c1csc2nc(-c3ccccn3)nc(N3CCOCC3)c12 |  |  | inhibition at 20 µM ([4]; compound at 20 μM): 1 to 25%
15 | Oc1nc(-c2ccccn2)nc(Oc2cccc(C(F)(F)F)c2)c1O |  |  | % Inhibition at 20 μM, KRas G12C (KRas G12C mutant; 20 μM compound): B (B = 25-50% inhibition)
16 | COCc1ccc(C2CCCN2c2ccc(C#N)c(C(F)(F)F)c2)o1 (stereo not shown) |  |  | inhibition at 20 µM [3, 6]: 25 to 50%
17 | CC(C)c1ccc(NC(=O)CCc2c(O)cc(-c3ccccn3)nc2O)cc1 |  |  | inhibition at 20 µM [3, 7]: 51 to 75%
18 | Cn1cnc(-c2nc(O)c3c(C4C=CC=CC4)c(-c4ccncc4)sc3n2)c1 (stereo not shown) |  |  | inhibition at 20 µM (KRas Q61H mutant): 1 to 25%; inhibition at 20 µM ([4]; 20 μM compound): 1 to 25%; inhibition at 20 µM [3, 6]: 1 to 25%
19 | CC(NC(=O)c1csc(-c2ccccc2)n1)c1ccccn1 (stereo not shown) |  |  | inhibition at 20 µM [3, 6]: 1 to 25%
20 | CC(C)COc1ccc(-c2csc3c(O)nc(-c4nccn4C)nc23)cn1 | 76 to 100% | 76 to 100% | 
21 | Nc1nc(-c2ccccn2)nc2scc(Br)c12 | 0% | 1 to 25% | 
22 | COCCN(Cc1ccccc1)CC(O)OCC(c1ccc(OC)cc1)c1ccc(OC)cc1 (stereo not shown) |  |  | inhibition at 20 µM [3, 6]: 1 to 25%
23 | O=C(CCCc1cccnc1)N1CCCc2c(O)nc(-c3ccccn3)nc21 |  |  | inhibition at 20 µM (KRas wild type): 25 to 50%; inhibition at 20 µM [3, 5]: 51 to 75%; inhibition at 20 µM (KRas G12C mutant): 51 to 75%; inhibition at 20 µM (KRas G12D mutant protein; compound at 20 μM): 51 to 75%
24 | CCC(C)c1csc2c(O)nc(-c3ccccn3)nc12 (stereo not shown) [drawing 2332] | 1 to 25% | 26 to 50% | 
25 | COc1cccc(C(=O)Nc2nc(-c3ccccn3)cs2)c1 | 0% | 1 to 25% | 
26 | COc1cc(CCNC(=O)c2csc3nc(-c4ccccn4)nc(N4CCOCC4)c23)ccn1 | 0% | 1 to 25% | 
27 | CC(C)(C(=O)Nc1cc(-c2ccccn2)nc2sccc12)c1ccc(C#N)cc1 | 1 to 25% | 76 to 100% | 
28 | COc1ccc(CCOC(=O)Nc2ccnc(-c3ccccn3)n2)cn1 |  |  | inhibition at 20 µM [3, 5]: 25 to 50%
29 | O=C(Nc1nnc(-c2ccccn2)s1)c1csc(-c2ccco2)n1 | 0% | 51 to 75% | 
